Tests used:
[1] = Reaction of MDAB with active signalogens (aldol donor properties); settings: for Efficiency as aldol donor with MDAB: compared with 6-chloro-1H-indol-3-ol (aS3); for Aldol product / color formed with MDAB: presence of MDAB, absence of oxygen
enteric bacterial cells = test: MDAB staining of bacterial colonies with indicators I4a and I5a on Tryptic Soy Agar, aerobic and anaerobic; type: cell-based; settings: for colonial morphology, aerobic conditions / colonial morphology, microaerobic (anaerobic) conditions: Salmonella manhattan (b-gal −), TSAYE with 40 mg/100 ml of indicator
Protocol: Tryptic Soy Agar (TSA) with yeast extract (0.6%) was used as the base plating medium. The media were autoclaved at 121° C. for 15 minutes and placed in a 50° C. water bath to cool. Indicators were added to the basal medium at a final concentration of 40 mg/100 ml (from 80 mg/ml stock solutions in DMF). Over night cultures of enteric bacterial cells in Brain Heart Infusion Broth were streaked onto the plates and incubated at 35° C. for 24 hours under aerobic and anaerobic conditions. After incubation, the colonial morphologies on the plates were recorded (Table III).
Weak staining was observed occasionally due to residual oxygen (micro-anaerobic conditions). Under aerobic conditions indigo (IN-stains) generally dominated the effects of MDAB staining. For example indicator system I4a/MDAB stained colonies violet under anaerobic but indigo blue under aerobic conditions.

Escherichia coli = test: IN and IO staining of bacterial colonies under anaerobic conditions; type: cell-based; settings: Nutrient Agar plates, anaerobically incubated with E. coli
Protocol: Nutrient Agar plates containing 150 mg/l of various substrates and 100 mg/l IPTG were inoculated with Escherichia coli. Plates were put in an anaerobic jar (Anaerojar, Oxoid), an AnaeroGen sachet (Oxoid) was added, the jar was closed and incubated for 24 hours at 37° C.
IN staining cannot be used under anaerobic conditions.

Aeromonas hydrophila 292 = test: IO staining of colonies of beta-D-galactosidase positive/negative bacteria (Table IVb); type: cell-based; settings: Aeromonas hydrophila strain 292, b-gal +; 24 h on Nutrient Agar, 150 mg/l indicator, 100 mg/l IPTG; for G: Growth of colonies: key: −: absent; +/−: weak; +: strong; ++: very strong
Citrobacter freundii 181 = test: as above; type: cell-based; settings: Citrobacter freundii strain 181, b-gal +; 24 h on Nutrient Agar, 150 mg/l indicator, 100 mg/l IPTG; for C: Color of colonies: key: −: absent; +/−: weak; +: strong; ++: very strong; for G: Growth of colonies: key: −: absent; +/−: weak; +: strong; ++: very strong
[2] = test system: Enterobacter aerogenes 242; test: as above; type: cell-based; settings: Enterobacter aerogenes strain 242, b-gal +; 24 h on Nutrient Agar, 150 mg/l indicator, 100 mg/l IPTG; for C: Color of colonies: key: −: absent; +/−: weak; +: strong; ++: very strong; for G: Growth of colonies: key: −: absent; +/−: weak; +: strong; ++: very strong
Enterobacter cloacae 245 = test: as above; type: cell-based; settings: Enterobacter cloacae strain 245, b-gal +; 24 h on Nutrient Agar, 150 mg/l indicator, 100 mg/l IPTG; for C: Color of colonies: key: −: absent; +/−: weak; +: strong; ++: very strong; for G: Growth of colonies: key: −: absent; +/−: weak; +: strong; ++: very strong
[3] = test system: Escherichia coli (O157:H7) 60; test: as above; type: cell-based; settings: Escherichia coli (O157:H7) strain 60, b-gal +; 24 h on Nutrient Agar, 150 mg/l indicator, 100 mg/l IPTG
Escherichia coli 61 = test: as above; type: cell-based; settings: Escherichia coli strain 61, b-gal +; 24 h on Nutrient Agar, 150 mg/l indicator, 100 mg/l IPTG; for C: Color of colonies: key: −: absent; +/−: weak; +: strong; ++: very strong; for G: Growth of colonies: key: −: absent; +/−: weak; +: strong; ++: very strong
Escherichia coli 270 = test: as above; type: cell-based; settings: Escherichia coli strain 270, b-gal +; 24 h on Nutrient Agar, 150 mg/l indicator, 100 mg/l IPTG; for C: Color of colonies: key: −: absent; +/−: weak; +: strong; ++: very strong; for G: Growth of colonies: key: −: absent; +/−: weak; +: strong; ++: very strong
[4] = test system: Klebsiella pneumoniae 164; test: as above; type: cell-based; settings: Klebsiella pneumoniae strain 164, b-gal +; 24 h on Nutrient Agar, 150 mg/l indicator, 100 mg/l IPTG; for C: Color of colonies: key: −: absent; +/−: weak; +: strong; ++: very strong; for G: Growth of colonies: key: −: absent; +/−: weak; +: strong; ++: very strong
Serratia marcescens 40 = test: as above; type: cell-based; settings: Serratia marcescens strain 40, b-gal +; 24 h on Nutrient Agar, 150 mg/l indicator, 100 mg/l IPTG; for G: Growth of colonies: key: −: absent; +/−: weak; +: strong; ++: very strong
[5] = test system: Staphylococcus intermedius 31; test: as above; type: cell-based; settings: Staphylococcus intermedius strain 31, b-gal +; 24 h on Nutrient Agar, 150 mg/l indicator, 100 mg/l IPTG
[6] = test system: Staphylococcus saprophyticus 273; test: as above; type: cell-based; settings: Staphylococcus saprophyticus strain 273, b-gal +; 24 h on Nutrient Agar, 150 mg/l indicator, 100 mg/l IPTG; for G: Growth of colonies: key: −: absent; +/−: weak; +: strong; ++: very strong
Salmonella bongori 81 = test: as above; type: cell-based; settings: Salmonella bongori strain 81, b-gal +; 24 h on Nutrient Agar, 150 mg/l indicator, 100 mg/l IPTG; for C: Color of colonies: key: −: absent; +/−: weak/variable; +: strong; for G: Growth of colonies: key: −: absent; +/−: weak; +: strong; ++: very strong
Salmonella illa 73 = test: as above; type: cell-based; settings: Salmonella illa strain 73, b-gal +; 24 h on Nutrient Agar, 150 mg/l indicator, 100 mg/l IPTG; note: key: −: absent; +/−: weak; +: strong; ++: very strong
[7] = test system: Shigella dysenteriae Serovar 1 131; test: as above; type: cell-based; settings: Shigella dysenteriae Serovar 1 strain 131, b-gal +/−; 24 h on Nutrient Agar, 150 mg/l indicator, 100 mg/l IPTG
Shigella sonnei 133 = test: as above; type: cell-based; settings: Shigella sonnei strain 133, b-gal +/−; 24 h on Nutrient Agar, 150 mg/l indicator, 100 mg/l IPTG; for C: Color of colonies: key: −: absent; +/−: weak; +: strong; ++: very strong; for G: Growth of colonies: key: −: absent; +/−: weak; +: strong; ++: very strong
[8] = test system: Yersinia enterocolitica 175; test: as above; type: cell-based; settings: Yersinia enterocolitica strain 175, b-gal +/−; 24 h on Nutrient Agar, 150 mg/l indicator, 100 mg/l IPTG; for G: Growth of colonies: key: −: absent; +/−: weak; +: strong; ++: very strong
[9] = test system: Salmonella enteritidis 43; test: as above; type: cell-based; settings: Salmonella enteritidis strain 43, b-gal −; 24 h on Nutrient Agar, 150 mg/l indicator, 100 mg/l IPTG; note: key: −: absent; +/−: weak; +: strong; ++: very strong
Bacillus subtilis 65 = test: as above; type: cell-based; settings: Bacillus subtilis strain 65, b-gal −; 24 h on Nutrient Agar, 150 mg/l indicator, 100 mg/l IPTG; for C: Color of colonies: key: −: absent; +/−: weak; +: strong; ++: very strong; for F: Fluorescence of colonies: key: −: absent; +/−: weak; +: strong; ++: very strong
[10] = test system: Listeria monocytogenes (4b) 290; test: as above; type: cell-based; settings: Listeria monocytogenes (4b) strain 290, b-gal −; 24 h on Nutrient Agar, 150 mg/l indicator, 100 mg/l IPTG; for C: Color of colonies: key: −: absent; +/−: weak; +: strong; ++: very strong; for F: Fluorescence of colonies: key: −: absent; +/−: weak; +: strong; ++: very strong
[11] = test system: Pseudomonas aeruginosa 168; test: as above; type: cell-based; settings: Pseudomonas aeruginosa strain 168, b-gal −, 24 h on Nutrient Agar, 150 mg/l indicator, 100 mg/l IPTG; for C: Color of colonies: key: −: absent; +/−: weak; +: strong; ++: very strong; for G: Growth of colonies: key: −: absent; +/−: weak; +: strong; ++: very strong
Shigella boydii 135 = test: as above; type: cell-based; settings: Shigella boydii strain 135, b-gal −; 24 h on Nutrient Agar, 150 mg/l indicator, 100 mg/l IPTG; note: key: −: absent; +/−: weak; +: strong; ++: very strong
Staphylococcus aureus 2 = test: as above; type: cell-based; settings: Staphylococcus aureus strain 2, b-gal −, 24 h on Nutrient Agar, 150 mg/l indicator, 100 mg/l IPTG; for F: Fluorescence of colonies: key: −: absent; +/−: weak; +: strong; ++: very strong
[12] = test system: Streptococcus agalactiae 195; test: as above; type: cell-based; settings: Streptococcus agalactiae strain 195, b-gal −; 24 h on Nutrient Agar, 150 mg/l indicator, 100 mg/l IPTG; for C: Color of colonies: key: −: absent; +/−: weak; +: strong; ++: very strong; for F: Fluorescence of colonies: key: −: absent; +/−: weak; +: strong; ++: very strong

Oc1c[nH]c2ccc(Br)c(Cl)c12 [aS4, 5-Bromo-4-chloro-1H-indol-3-ol]
Efficiency as aldol donor with MDAB [1]: far more effective

5-Bromo-6-chloro-1H-indol-3-yl-beta-D-galactopyranoside [Indicator I5a]
colonial morphology, aerobic conditions (enteric bacterial cells; aR MDAB, equivalents 1:1): Cream colored colonies | colonial morphology, microaerobic (anaerobic) conditions (enteric bacterial cells; aR MDAB, equivalents 1:1): Cream colored colonies | colonial morphology, aerobic conditions (enteric bacterial cells; no aR): Cream colored colonies | colonial morphology, microaerobic (anaerobic) conditions (enteric bacterial cells; no aR): Cream colored colonies

CN(C)c1ccc(C=O)cc1 [DAB, 4-(N,N-Dimethyl)aminobenzaldehyde]
Formation of BI-stains when used to replace MDAB (enteric bacterial cells; all conditions tested): did not produce any BI-stains

Oc1c[nH]c2cc(Cl)c(Br)cc12 [aS5, 5-Bromo-6-chloro-1H-indol-3-ol]
Efficiency as aldol donor with MDAB [1]: far more effective

COc1cc(N(C)C)ccc1C=O [MDAB, 2-methoxy-4-(N,N-dimethylamino)benzaldehyde]
Toxic effect on microbial cell growth (enteric bacterial cells; Indox/MDAB staining of microbial colonies): no toxic effect

Nc1c[nH]c2ccccc12 [aS6, 1H-Indol-3-amine]
Aldol product / color formed with MDAB [1]: Formation of the expected hetero aldol product was not observed | Aldol product / color formed with MDAB ([1]; listed as 3-aminoindole): failed to yield any aldol product

Cn1cccc1C(=O)c1ccccc1-n1cc(O[C@@H]2O[C@H](CO)[C@H](O)[C@H](O)[C@H]2O)c2ccc(Cl)cc21 [Indicator I31a, 6-Chloro-1-[2-(N-methylpyrrole-2-carbonyl)phenyl]-1H-indol-3-yl-beta-D-galactopyranoside]
C: Color of colonies (Escherichia coli): o-r | D: Diffusion around colonies (Escherichia coli): + | G: Growth of colonies (Escherichia coli): + | I: Intensity of color (Escherichia coli): + | L: Localization on colonies (Escherichia coli): +/− | S: Size of colonies (Escherichia coli): 0.8 mm | C: Color of colonies (Aeromonas hydrophila 292): + | F: Fluorescence of colonies (Aeromonas hydrophila 292): − | G: Growth of colonies (Aeromonas hydrophila 292): + | C: Color of colonies (Citrobacter freundii 181): + | F: Fluorescence of colonies (Citrobacter freundii 181): +/− | G: Growth of colonies (Citrobacter freundii 181): + | C: Color of colonies [2]: + | F: Fluorescence of colonies [2]: +/− | G: Growth of colonies [2]: + | C: Color of colonies (Enterobacter cloacae 245): + | F: Fluorescence of colonies (Enterobacter cloacae 245): +/− | G: Growth of colonies (Enterobacter cloacae 245): + | C: Color of colonies [3]: + | F: Fluorescence of colonies [3]: +/− | G: Growth of colonies [3]: + | C: Color of colonies (Escherichia coli 61): + | F: Fluorescence of colonies (Escherichia coli 61): +/− | G: Growth of colonies (Escherichia coli 61): + | C: Color of colonies (Escherichia coli 270): + | F: Fluorescence of colonies (Escherichia coli 270): +/− | G: Growth of colonies (Escherichia coli 270): + | C: Color of colonies [4]: + | F: Fluorescence of colonies [4]: +/− | G: Growth of colonies [4]: + | C: Color of colonies (Serratia marcescens 40): + | F: Fluorescence of colonies (Serratia marcescens 40): − | G: Growth of colonies (Serratia marcescens 40): + | C: Color of colonies [5]: + | F: Fluorescence of colonies [5]: − | G: Growth of colonies [5]: + | C: Color of colonies [6]: + | F: Fluorescence of colonies [6]: − | G: Growth of colonies [6]: + | C: Color of colonies (Salmonella bongori 81): +/− | F: Fluorescence of colonies (Salmonella bongori 81): − | G: Growth of colonies (Salmonella bongori 81): + | C: Color of colonies (Salmonella illa 73): − | F: Fluorescence of colonies (Salmonella illa 73): − | G: Growth of colonies (Salmonella illa 73): + | C: Color of colonies [7]: − | F: Fluorescence of colonies [7]: − | G: Growth of colonies [7]: + | C: Color of colonies (Shigella sonnei 133): + | F: Fluorescence of colonies (Shigella sonnei 133): +/− | G: Growth of colonies (Shigella sonnei 133): + | C: Color of colonies [8]: +/− | F: Fluorescence of colonies [8]: − | G: Growth of colonies [8]: + | C: Color of colonies [9]: − | F: Fluorescence of colonies [9]: − | G: Growth of colonies [9]: + | C: Color of colonies (Bacillus subtilis 65): − | F: Fluorescence of colonies (Bacillus subtilis 65): − | G: Growth of colonies (Bacillus subtilis 65): + | C: Color of colonies [10]: − | F: Fluorescence of colonies [10]: − | G: Growth of colonies [10]: +/− | C: Color of colonies [11]: − | G: Growth of colonies [11]: + | F: Fluorescence of colonies ([11]; footnote 1: blue autofluorescence): − | C: Color of colonies (Shigella boydii 135): − | F: Fluorescence of colonies (Shigella boydii 135): − | G: Growth of colonies (Shigella boydii 135): + | F: Fluorescence of colonies (Staphylococcus aureus 2): − | G: Growth of colonies (Staphylococcus aureus 2): + | C: Color of colonies (Staphylococcus aureus 2; footnote 2: S. aureus natural color): − | C: Color of colonies [12]: − | F: Fluorescence of colonies [12]: − | G: Growth of colonies [12]: +/−

Sc1c[nH]c2ccccc12 [aS7, 1H-Indol-3-thiol]
Aldol product / color formed with MDAB [1]: the expected violet color appeared only under strongly acidic conditions | Aldol product / color formed with MDAB ([1]; listed as 3-mercaptoindole): did produce the characteristic pink dye (BI7) under strongly acidic conditions

Source: patent US8940909B2, “Indicator platform” (Biosynth AG, priority 2009, dated 2015)
